# Source: US12122848B2, “Compositions and methods for treating fibroids” (THE LUNDQUIST INSTITUTE FOR BIOMEDICAL INNOVATION AT …, priority 2020, dated 2024)
# “Also recorded” adds a separate entry of the source.
# Tests used:
# [1] = system: LSMC (leiomyoma smooth muscle cells) spheroids; assay: Cell proliferation in LSMC spheroids, CellTiter-Glo 3D Cell Viability Assay; format: cell-based, human
# Procedure: (§1) Isolated MSMC and LSMC were plated in 6-well (1×10^5 cells/well) or 96-well (5×10^3 cells/well) plates which were coated with 0.5% agarose gel and incubated 48 hours for spheroids formation.
# (§2) The concentrations of inhibitors used was based on earlier studies and the cell proliferation was determined using the CellTiter-Glo 3D Cell Viability Assay (Promega, Madison, WI) according to the manufacturer's protocol. The assay was performed in six replicates per condition and repeated four times using cells isolated from four different patients.
# [2] = system: MSMC (myometrial smooth muscle cells) spheroids; assay: Cell proliferation in MSMC spheroids, CellTiter-Glo 3D Cell Viability Assay; format: cell-based, human
# Procedure: as §1, §2
# [3] = system: LSMC spheroids; assay: Immunoblotting of ECM and inflammation proteins in LSMC spheroids after inhibitor treatment; format: cell-based, human
# Procedure: Total protein isolated from paired tissue samples and MSMC and LSMC spheroids following treatment conditions was subjected to immunoblotting. Briefly, samples were suspended in RIPA buffer containing 1 mM EDTA and EGTA (Boston BioProducts, Ashland, MA) supplemented with 1 mM PMSF and a complete protease inhibitor mixture (Roche Diagnostics, Indianapolis, IN), sonicated, and centrifuged at 4° C. for 10 min at 14,000 rpm. The concentration of protein was determined using the BCA™ Protein Assay Kit (Thermo Scientific Pierce, Rockford, IL). Equal aliquots (thirty micrograms) of total protein for each sample was denatured with SDS-PAGE sample buffer and separated by electrophoresis on a SDS polyacrylamide gel. After transferring the samples to a nitrocellulose membrane, the membrane was blocked with TBS-Tween+5% milk and probed with the following primary antibodies: IDO1 (Cell Signaling Technology, Danvers, MA), TDO2, COL3A1 (Proteintech Group, Inc, Chicago, Illinois) and COL1A1 (Fitzgerald Industries Intl, Acton, MA). The membranes were washed with TBS containing 0.1% Tween-20 wash buffer after each antibody incubation cycle. SuperSignal West Pico Chemiluminescent Substrate™ (Thermo Scientific Pierce) was used for detection, and photographic emulsion was used to identify the protein bands, which were subsequently quantified by densitometry. The membranes were also stripped and probed with glyceraldehyde 3-phosphate dehydrogenase (GAPDH) antibody (Santa Cruz Biotechnology, Santa Cruz, CA) serving as the loading control. The densities of the specific protein bands were determined using image J program (imagej.nih.gov/ij/), normalized to GAPDH or a band obtained from staining the membrane with Ponceau S. Results were expressed as means±SEM as a ratio relative to the control group designated as 1.
# as §1
# [4] = system: leiomyoma explants; assay: COL1A1 and COL3A1 in culture-conditioned media of leiomyoma explants; format: cell-based, human; conditions: fresh leiomyoma explants, different doses, 48 hours, N=2
# Procedure: FIG. 5A-F. (A) Representative images of COL1A1 and COL3A1 in culture-conditioned media of leiomyoma explants after treatment with different doses of TDO2 inhibitor, 680C91 for 48 hours (N=2). An equal volume of conditioned media was used, and a Ponceau S-stained protein band on the nitrocellulose membrane was used as a loading control. (B) The effect of DMSO (control) and E2+P4 (10^−8M each) after 48 hours of culture on the expression of IDO1 and TDO2 in LSMC spheroids (N=2). (C) Representative western blot analysis of TDO2 following transfection of LSMC spheroids with anti-miR-200c oligonucleotides for 96 hrs. […] (E-F) QRT-PCR analysis of TDO2 (E), miR-29c and miR-200c (F) in LSMC spheroids after transfection of siRNA negative control (siNC) or TDO2 siRNA oligonucleotides (siTDO2) for 96 hours (N=3). The results are presented as mean±SEM with P values (*:p<0.05) indicated by corresponding lines.
# Using fresh leiomyoma explants, we confirmed that the expression of COL1A1 and COL3A1 was decreased in culture-conditioned media following treatment with different doses of TDO2 inhibitor, 680C91 (FIG. 5A).
# [5] = system: leiomyoma explants; assay: CYP1B1 expression in leiomyoma explants (AhR signaling marker); format: cell-based, human; conditions: fresh leiomyoma explants, 48 hours; kynurenine 100 μM, tryptophan different doses (mM), 680C91 50 μM
# [6] = system: leiomyoma explants; assay: Preliminary experiment: leiomyoma explants implanted subcutaneously in ovariectomized CB-17 scid/beige mice; format: in vivo; conditions: 8 mg/Kg daily via IP, 8 weeks
# Procedure: This example also performed a preliminary experiment using freshly collected leiomyoma explants implanted subcutaneously on the flank of ovariectomized CB-17 scid/beige female mice (N=2), and treated with vehicle or TDO2 inhibitor (680C91; 8 mg/Kg daily via IP) for 8 weeks. After sacrifice, plasma was collected and analyzed for blood chemistry panel (Abaxis).
# [7] = system: leiomyoma explants; assay: In vivo experiment: leiomyoma explants implanted subcutaneously in ovariectomized CB-17 scid/beige mice; conditions: 10 mg/Kg daily, i.p., 8 weeks
# Procedure: FIG. 7A-E. (A) Representative of the gross appearance of leiomyoma specimens (arrow) implanted subcutaneously in CB-17 SCID/Beige female mice following 8 weeks treatment of vehicle (left) or TDO2 inhibitor (right; 680C91; 10 mg/Kg daily via IP). (B) The relative explants weight between vehicle and 680C91 treated group after 8 weeks treatment (n=6). The ratio of plasma kynurenine vs tryptophan levels was shown in (C). (D) QRT-PCR analysis of COL1A1, FN1, DNMT1 and CCND1 expression in explants (n=6) implanted subcutaneously after 8 weeks treatment of vehicle or TDO2 inhibitor. (E) Paraformaldehyde-fixed paraffin-embedded xenograft explants of vehicle (a) or TDO2 inhibitor (b) stained with Masson's Trichrome reagent. […] The results are presented as mean±SEM with P values (*:p<0.05) indicated by corresponding lines.
# We also performed the in vivo experiment using freshly collected leiomyoma explants implanted subcutaneously in the flank of ovariectomized CB-17 scid/beige female mice (N=6), and treated with vehicle or TDO2 inhibitor (680C91; 10 mg/Kg daily, i.p.) for 8 weeks (FIG. 7A). After sacrifice, the explants weight was determined and the collected plasma was analyzed for levels of tryptophan, kynurenine and blood chemistry panel (Abaxis).
# [8] = system: LSMC spheroids; assay: Kynurenine treatment of LSMC spheroids, expression of AhR, IDO1, TDO2 and COL1A1; format: cell-based, human; conditions: 100 μM, 72 hours, N=2
# Procedure: FIG. 6A-D. (A) The relative (mean±SEM) expression of CYP1B1 in paired (N=43) myometrium (Myo) and leiomyoma (Lyo). (B) Representative images show the levels of AhR and ARNT in fresh subfractionated cytoplasmic (Cyto) and nuclear (Nu) phase from myometrium (Myo) and paired leiomyoma (Lyo) with Calpain 1 and Lamin B1 served as markers for the respective subcellular fractions (N=3). (C) Representative images of CYP1B1 in leiomyoma explants after treatment with kynurenine (100 μM), different doses of tryptophan (mM) and TDO2 inhibitor (680C91, 50 μM) for 48 hours with a Ponceau S-stained protein band on the nitrocellulose membrane used as a loading control (N=2). (D) The effect of kynurenine (KYN, 100 μM) treatment for 72 hours on the expression of AhR, IDO1, TDO2 and COL1A1 in LSMC spheroids (N=2). The results are presented as mean±SEM with P values (*:p<0.05) indicated by corresponding lines.
# Using fresh leiomyoma explants we confirmed that the expression of CYP1B1 was increased by the treatment of kynurenine (Kyn) and tryptophan, while decreased following TDO2 inhibitor treatment (FIG. 6C).
# [9] = Example 3, various concentrations, 48 hours, n=4
# [10] = Example 2, different doses, 48 h
# [11] = Example 3, 48 hours, different concentrations
smiles,measurement,setting,value
"Fc1ccc2c(/C=C/c3cccnc3)c[nH]c2c1 [Compound 680C91, 6-Fluoro-3-[(1E)-2-(3-pyridinyl)ethenyl]-1H-indole]",cell proliferation,[1]; Example 2,significantly suppressed
same,spheroids cell proliferation,[1]; [9],significantly inhibited; also recorded: significantly repressed
same,cell proliferation,[2]; Example 2,significantly suppressed
same,spheroids cell proliferation,[2]; [9],significantly repressed
same,protein expression of COL3A1,[3]; [10],down-regulated dose dependently
same,protein expression of IKBKB,[3]; [10],down-regulated dose dependently
same,protein expression of fibronectin,[3]; [10],down-regulated dose dependently
same,expression of COL1A1,[3]; [11],significantly reduced; also recorded: significantly repressed
same,expression of COL3A1,[3]; [11],significantly reduced; also recorded: significantly repressed
same,expression of COL1A1 in culture-conditioned media,[4],decreased
same,expression of COL3A1 in culture-conditioned media,[4],decreased
same,expression of CYP1B1,[5],decreased
same,TDO2 expression,[6],down-regulated
same,effects on body weight,[6],no effects
same,effects on food consumption,[6],no effects
same,expression of COL1A1,[6],down-regulated
same,expression of MyD88,[6],down-regulated
same,expression of TGF-β3,[6],down-regulated
same,tumor size,[6]; N=2,reduced
same,adverse effects on blood chemistry including liver and renal panels,[6]; plasma,no adverse effects
same,effects on body weight,[7],no effects
same,effects on food consumption,[7],no effects
same,explants weight,[7]; N=6,lower weight
same,expression of CCND1,"[7]; explants, QRT-PCR",down-regulated
same,expression of COL1A1,"[7]; explants, QRT-PCR",down-regulated
same,expression of DNMT1,"[7]; explants, QRT-PCR",down-regulated
same,expression of FN1,"[7]; explants, QRT-PCR",down-regulated
same,adverse effects on blood chemistry including liver and renal panels,[7]; plasma,no adverse effects
same,ratio of kynurenine/tryptophan,[7]; plasma,decreased
same,"deposition of collagens, keratin and cytoplasm, Masson's Trichrome staining",[7]; xenograft explants,less deposition
N[C@@H](Cc1c[nH]c2ccccc12)C(=O)O [tryptophan],expression of CYP1B1,[5],increased
Nc1ccccc1C(=O)CC(N)C(=O)O (stereo not drawn) [kynurenine],expression of CYP1B1,[5],increased
same,expression of AhR,[8],increase
same,expression of COL1A1,[8],increase
same,expression of IDO1,[8],increase
same,expression of TDO2,[8],increase
